Test results reported in patent publication US9663528B2, “Substituted 1,2,3,4,6,8,12,12a-octahydro-1,4-methanodipyrido[1,2-a:1',2'-d]pyrazines and methods for treating viral infections” (priority 2012, dated 2017).

How the values were obtained:
[1] = biological target: PXR (Homo sapiens (Human), UniProt O75469); assay: Human PXR activation assay (luciferase reporter gene assay, DPX2 cells); format: cell-based; conditions: human
Protocol: A stably transformed tumor cell line (DPX2) was plated on 96-well microtiter plates. DPX2 cells harbor the human PXR gene (NR112) and a luciferase reporter gene linked to two promoters identified in the human CYP3A4 gene, namely XREM and PXRE. […] The number of viable cells was determined and the reporter gene activity was assessed. Positive control: […]

[2] = in vitro; conditions: human, CC50 nM in MT-4

Sequence of PXR (O75469 whole entry): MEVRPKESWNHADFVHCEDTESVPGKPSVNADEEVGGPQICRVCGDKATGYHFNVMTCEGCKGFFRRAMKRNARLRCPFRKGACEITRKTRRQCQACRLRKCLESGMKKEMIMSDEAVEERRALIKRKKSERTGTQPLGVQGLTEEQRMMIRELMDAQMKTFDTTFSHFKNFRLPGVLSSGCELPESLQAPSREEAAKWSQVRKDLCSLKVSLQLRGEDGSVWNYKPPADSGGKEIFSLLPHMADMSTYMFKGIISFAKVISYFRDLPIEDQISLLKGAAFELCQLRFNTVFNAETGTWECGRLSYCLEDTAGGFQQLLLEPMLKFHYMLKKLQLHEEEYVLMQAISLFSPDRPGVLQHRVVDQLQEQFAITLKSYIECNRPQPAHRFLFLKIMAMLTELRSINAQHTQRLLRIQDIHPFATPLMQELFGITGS

## O=C(NCc1cc(F)ccc1F)c1cn2c(c(O)c1=O)C(=O)N1[C@H]3CC[C@H](C3)O[C@@H]1C2 [Compound 89, (2R,5S,13aR)-N-(2,5-difluorobenzyl)-8-hydroxy-7,9-dioxo-2,3,4,5,7,9,13,13a-octahydro-2,5-methanopyrido[1′,2′:4,5]pyrazino[2,1-b][1,3]oxazepine-10-carboxamide]
[1]
  Emax at 24 h, 15 µM: 5%
[2]
  CC50 at 5 days: 4630 nM

## O=C(NCc1cccc(Cl)c1F)c1cn2c(c(O)c1=O)C(=O)N1[C@H]3CC[C@H](C3)[C@@H]1C2 [Compound 90, (1R,4S,12aR)-N-(3-chloro-2-fluorobenzyl)-7-hydroxy-6,8-dioxo-1,2,3,4,6,8,12,12a-octahydro-1,4-methanodipyrido[1,2-a:1′,2′-d]pyrazine-9-carboxamide]
[1]
  Emax at 24 h, 15 µM: 11%
[2]
  CC50 at 5 days: 8090 nM

## O=C(NCc1ccc(F)c(F)c1F)c1cn2c(c(O)c1=O)C(=O)N1[C@H]3CC[C@H](C3)[C@@H]1C2 [Compound 91, (1R,4S,12aR)-7-hydroxy-6,8-dioxo-N-(2,3,4-trifluorobenzyl)-1,2,3,4,6,8,12,12a-octahydro-1,4-methanodipyrido[1,2-a:1′,2′-d]pyrazine-9-carboxamide]
[1]
  Emax at 24 h, 15 µM: 3%
[2]
  CC50 at 5 days: 7180 nM

## O=C(NCc1ccc(Cl)cc1F)c1cn2c(c(O)c1=O)C(=O)N1[C@H]3CC[C@H](C3)[C@@H]1C2 [Compound 92, (1R,4S,12aR)-N-(4-chloro-2-fluorobenzyl)-7-hydroxy-6,8-dioxo-1,2,3,4,6,8,12,12a-octahydro-1,4-methanodipyrido[1,2-a:1′,2′-d]pyrazine-9-carboxamide]
[1]
  Emax at 24 h, 15 µM: 3%
[2]
  CC50 at 5 days: 4550 nM

## O=C(NCc1c(F)cc(F)cc1Cl)c1cn2c(c(O)c1=O)C(=O)N1[C@H]3CC[C@H](C3)[C@@H]1C2 [Compound 93, (1R,4S,12aR)-N-(2-chloro-4,6-difluorobenzyl)-7-hydroxy-6,8-dioxo-1,2,3,4,6,8,12,12a-octahydro-1,4-methanodipyrido[1,2-a:1′,2′-d]pyrazine-9-carboxamide]
[1]
  Emax at 24 h, 15 µM: 9%
[2]
  CC50 at 5 days: 6160 nM

## O=C(NCc1c(F)cc(F)cc1F)c1cn2c(c(O)c1=O)C(=O)N1[C@@H]3C[C@@H](C(F)C3F)[C@@H]1C2 (stereo partly drawn) [Compound 103, (1R,4R,12aR)-2,3-difluoro-7-hydroxy-6,8-dioxo-N-(2,4,6-trifluorobenzyl)-1,2,3,4,6,8,12,12a-octahydro-1,4-methanodipyrido[1,2-a:1′,2′-d]pyrazine-9-carboxamide]
[1]
  Emax at 24 h, 15 µM: 0%
[2]
  CC50 at 5 days: 35100 nM
